From patent publication US7776882B2, “2-amino-3,4-dihydro-quinoline derivatives useful as inhibitors of β-secretase (BACE)” (priority 2006, dated 2010) come the findings set out here.

Common to all, as to format: biochemical
Assay [1] addresses T1, β-secretase (BACE) (Homo sapiens, UniProt P56817).
T1 construct: purchased Panvera
The assay is described as follows: In Vitro BACE Assay, Ki (Example 11). To be noted: FS1 substrate 50 μM, Km 24 μM. As for the experimental part: The following reagents were used in this assay: sodium acetate, PEG8000 (Sigma), DMSO, HEPES, FS1 substrate [R(AedensE)[…]-(DabcylK)R], β-secretase (BACE) (Panvera), and 96-well plate (HE microplate, Molecular Devices).
(§1) The following assay buffers were prepared and used in this assay: (1) enzyme assay buffer (0.05 M sodium acetate, pH5, 0.1% PEG8000 (w/v)), (2) substrate assay buffer (0.05 M sodium acetate, pH5), and (3) compound vehicle (30% DMSO in 50 mM HEPES, pH 7.4).
(§2) The FS1-substrate stock solution was prepared in DMSO as a 10 mg/mL solution. The FS1-substrate working solution was prepared by diluting the 10 mg/mL stock solution with substrate assay buffer to a final concentration of 300 μg/mL. The β-secretase (BACE) working solution was prepared by diluting a 0.83 mg/mL BACE stock solution with enzyme assay buffer to a final concentration of 4 μg/mL.
Test compounds were dissolved in DMSO at 10 mM.
The procedure for this assay was as follows: 15 μL of BACE working solution was pipetted into each well of a 96-well plate. To each well was then pipetted 2 μL of test compound at the selected concentration. Test compound and BACE were then mixed with a pipettor and incubated for 20 min at room temperature. To each well was then added 10 μL of the FS1 substrate working solution. The fluorescence for each well was then measured on a Polarstar fluorometer (Ex 390 nm/Em 520 nm) for 20 min at room temperature, reading fluorescence at 1 min intervals.
The procedure for the positive control was as follows: 15 μL of BACE working solution was pipetted into each well to be used as a positive control. To each well was then pipetted 2 μL of vehicle. Vehicle and BACE were then mixed with a pipettor and incubated for 20 min at room temperature. To each well was then added 10 μL of the FS1 substrate working solution. The fluorescence was then measured on a Polarstar fluorometer (Ex 390 nm/Em 520 nm) for 20 min at room temperature, reading fluorescence at 1 min intervals.
For test compounds, Ki inhibition was determined as follows: For each compound concentration and positive control, rate of cleavage of substrate (Vi, where i=compound concentration in μM) was determined as Δ Fluorescence/Δ time (min). Cleavage rates (Vi) were plotted as a function of inhibitor concentration in μM [I]. The Ki was then determined by fitting the following equation to the graph of [I] vs Vi Y=aVmax/(50+24*(1+X/Ki)),

Assay [2] concerns the target T1, β-secretase (BACE). Nature of the assay: In Vitro BACE FS1 % Inhibition Assay (Example 10). The note with it: FS1 substrate, values below about 25% (including negative) within noise; for % Inhibition (Example 10) @ 0.3 μM / inhibition at 0.3 µM: 0.3 μM compound; for % Inhibition (Example 10) @ 1 μM / inhibition at 1 µM: 1 μM compound; for % Inhibition (Example 10) @ 3 μM / inhibition at 3 µM: 3 μM compound. As for the experimental part: as §1, §2
Test compounds were dissolved in DMSO to 10 mM. Compounds were further diluted in vehicle to various concentrations in the range of 405 μM to 4.05 μM (13.5×final compound concentration in screening plate).
The screening procedure for this assay was as follows: 15 μL of BACE working solution was pipetted into each well of a 96-well plate. To each well was then pipetted 2 μL of test compound at the selected concentration. Test compound and BACE were then mixed with a pipettor and incubated for 20 min at room temperature. To each well was then added 10 μL of the FS1 substrate working solution. The plates were then incubated for 1 hour at room temperature. The fluorescence for each well was then measured on an LJL analyst (Ex 360 nm/Em 530 nm).
The procedure for the blank (negative control) was as follows. 15 μL of assay buffer was pipetted into each well to be used as a blank control. To each well was then added 2 μL of vehicle and 10 μL of FS1-substrate working solution. The plates were then incubated for 1 hour at room temperature. The fluorescence was measured on an LJL analyst (Ex 360 nm/Em 530 nm).
The procedure for the positive control was as follows: 15 μL of BACE working solution was pipetted into each well to be used as a positive control. To each well was then pipetted 2 μL of vehicle. Vehicle and BACE were then mixed with a pipettor and incubated for 20 min at room temperature. To each well was then added 10 μL of the FS1 substrate working solution. The plates were then incubated for 1 hour at room temperature. The fluorescence (Fl) was then measured on an LJL analyst (Ex 360 nm/Em 530 nm).
For test compounds, % inhibition was determined at each concentration as follows: […]

A further assay addresses T2, human BACE-1 (Homo sapiens, UniProt P56817).
T2 construct: purchased CEREP (contract assay) 761-B
The assay is described as follows: In Vitro BACE Assay run by CEREP (Example 14). The note with it: recombinant enzyme, 60 min at 37° C., pH 4.5; for inhibition at 0.3 µM / % Inhibition 0.3 μM: 0.3 μM compound; for inhibition at 1 µM / % Inhibition 1 μM: 1 μM compound. As for the experimental part: This assay was run by CEREP (Catalog Ref. 761-B, Referred to SOP No. 1C131; ERMOLIEFF, J., LOY, J. A., KOELSCH, G. and TANG, J., Proteolytic activation of recombinant pro-memapsin 2 (pro-BACE) studied with new fluorogenic substrates, Biochemistry, (2000) Vol. 39, p. 12450).
More specifically the assay, run at 50 μL in a 96 well plate, evaluated the effect of test compound on the activity of the human BACE-1 quantified by measuring the formation of Mca-S-E-V-N-L-NH2 from Mca-S-E-V-N-L-D-A-E-F-R-K(Dnp)-R-R-NH2, using a recombinant enzyme.
The test compound, reference compound or water (control) was added to a buffer containing 0.09 M sodium acetate (pH 4.5) and 0.25 μg BACE-1. Compound interference with the fluorimetric detection method due to autofluorescence was then checked by measurements at the wavelengths defined to evaluate the enzyme activity. Thereafter, the reaction was initiated by adding 7.5 μM of the substrate Mca-S-E-V-N-L-D-A-E-F-R-K(Dnp)-R-R-NH2 and the mixture was incubated for 60 min at 37° C. For control basal measurement, the substrate was omitted from the reaction mixture. Immediately after the incubation, the fluorescence intensity emitted by the reaction product Mca-S-E-V-N-L-NH2 was measured at λex=320 nm and λem=405 nm using a microplate reader (Ultra, Tecan). The standard inhibitory reference compound was OM99-2, which was tested in each experiment at several concentrations to obtain an inhibition curve from which its IC50 value was calculated.

Like-named read-outs stand apart in the source and are kept apart here.

T1 sequence (P56817 46-501): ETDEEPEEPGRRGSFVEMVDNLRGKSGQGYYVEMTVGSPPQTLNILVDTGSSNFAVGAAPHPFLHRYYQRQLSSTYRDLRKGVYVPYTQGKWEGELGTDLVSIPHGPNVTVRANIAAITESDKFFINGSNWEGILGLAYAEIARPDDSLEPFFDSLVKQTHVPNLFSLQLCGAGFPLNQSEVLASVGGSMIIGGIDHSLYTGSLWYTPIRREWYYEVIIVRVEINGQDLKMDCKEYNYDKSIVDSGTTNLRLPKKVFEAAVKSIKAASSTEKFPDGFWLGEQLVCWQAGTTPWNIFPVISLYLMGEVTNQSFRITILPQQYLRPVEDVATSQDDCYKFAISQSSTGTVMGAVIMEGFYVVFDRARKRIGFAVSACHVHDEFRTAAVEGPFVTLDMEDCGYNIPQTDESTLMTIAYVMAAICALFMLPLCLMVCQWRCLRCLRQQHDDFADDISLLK
T2 sequence (P56817 46-501): as above

As for `Nc1nc2ccc(Oc3ccccc3)cc2cc1C(CCC(=O)NC12CC3CC(CC(C3)C1)C2)C1CCCCC1` (stereo not shown) [compound 15], the Ki – broadly, the equilibrium dissociation constant of an inhibitor or competing ligand from its target – on β-secretase (BACE) [1] (read-out: Ki (μM) (Example 11)) turned out to be 0.28 µM. At β-secretase (BACE) [2], the “% Inhibition (Example 10) @ 0.3 μM” value is reported as 43%, the “% Inhibition (Example 10) @ 1 μM” value is 58% and the “% Inhibition (Example 10) @ 3 μM” value amounted to 78%.

`CN(C(=O)CCC(c1cc2cc(Oc3ccccc3)ccc2nc1N)C1CCCCC1)C1CCCCC1` (stereo not shown) [compound 16] showed a Ki on β-secretase (BACE) [1] (Ki (μM) (Example 11)) of 0.44 µM. At β-secretase (BACE) [2], the inhibition – broadly, the relative decrease from the control value, in per cent – at 0.3 µM stood at 29%; the inhibition at 1 µM was determined as 27%; the inhibition at 3 µM was 78%. At human BACE-1, the inhibition at 0.3 µM was 15%, the inhibition at 1 µM came to 46% and the IC50 (commonly the midpoint of a concentration-inhibition curve) was 700 nM.

For `Nc1nc2ccc(Oc3ccccc3)cc2cc1CCC(=O)NC12CC3CC(CC(C3)C1)C2` [compound 2], the Ki on β-secretase (BACE) [1] (read-out: Ki (μM) (Example 11)) was 0.23 µM. Besides, on β-secretase (BACE) [2], the “% Inhibition (Example 10) @ 0.3 μM” value came to 45%, the “% Inhibition (Example 10) @ 1 μM” value is 78% and the “% Inhibition (Example 10) @ 3 μM” value stood at 107%.

On to `CN(C(=O)CC[C@H](c1cc2cc(Oc3ccccc3)ccc2nc1N)C1CCOCC1)C1CCCCC1` [compound 25], for which, at β-secretase (BACE) [1] (Ki (μM) (Example 11)), the Ki is 0.16 µM. Besides, on β-secretase (BACE) [2], the inhibition at 0.3 µM stood at 83%, the inhibition at 1 µM turned out to be 114% and the inhibition at 3 µM turned out to be 126%.

In the case of `CC(C)=CCCC(C)=CCNC(=O)CCc1cc2cc(Oc3ccccc3)ccc2nc1N` [compound 13], the Ki on β-secretase (BACE) [1] (Ki (μM) (Example 11)) was determined as 0.64 µM. On β-secretase (BACE) [2], the inhibition at 0.3 µM was determined as 2%, the inhibition at 1 µM turned out to be 42% and the inhibition at 3 µM is 88%.

`Nc1nc2ccc(Oc3ccccc3)cc2cc1C(CCC(=O)N(c1ncc[nH]1)C1CCCCC1)C1CCCCC1` (stereo not shown) [compound 41]: at human BACE-1, the inhibition at 0.3 µM came to 11%, the inhibition at 1 µM came out at 79% and the IC50 turned out to be 470 nM.

On to `CN(Cc1ccccc1)C(=O)CCC(c1cc2cc(Oc3ccccc3)ccc2nc1N)C1CCCCC1` (stereo not shown) [compound 38], for which, at human BACE-1, the “% Inhibition 0.3 μM” value is recorded as 8% and the “% Inhibition 1 μM” value turned out to be 9%.

For the compound `C=CCCC(c1cc2cc(Oc3ccccc3)ccc2nc1N)C1CCCCC1` (stereo not shown) [compound 509], on human BACE-1, the “% Inhibition 0.3 μM” value was determined as 11% and the “% Inhibition 1 μM” value is reported as −3%.

Consider `Cn1ccnc1CN(CC(C)(C)C)C(=O)CCC(c1cc2cc(Oc3ccccc3)ccc2nc1N)C1CCCCC1` (stereo not shown) [compound 43], for which, at human BACE-1, the inhibition at 1 µM is 88% and the IC50 was found to be 650 nM.

Regarding `Cn1ccnc1CN(CCC(C)(C)C)C(=O)CCC(c1cc2cc(Oc3ccccc3)ccc2nc1N)C1CCCCC1` (stereo not shown) [compound 72], the “% Inhibition 1 μM” value at human BACE-1 (1 µM) turned out to be 81%.

Turning to `CC(C)(C)OC[C@@H](NC(=O)CC[C@H](c1cc2cc(Oc3ccccc3)ccc2nc1N)C1CCCCC1)C(=O)N1CCOCC1` [compound 45], on human BACE-1, the inhibition at 1 µM was 46% and the IC50 was 1100 nM.

In the case of `Nc1nc2ccc(Oc3ccccc3)cc2cc1C(CCC(=O)NC1CN2CCC1CC2)C1CCOCC1` (mixture of isomers) [compound 52], the “% Inhibition 1 μM” value on human BACE-1 turned out to be 6%.

Take `Nc1nc2ccc(Oc3ccccc3)cc2cc1C(CCC(=O)N(CCN1CCOCC1)C1CCCCC1)C1CCOCC1` (stereo not shown) [compound 65]: at human BACE-1, the inhibition at 1 µM is 69% and the IC50 was found to be 850 nM.

Regarding `Nc1nc2ccc(Oc3ccccc3)cc2cc1C(CCC(=O)N(Cc1c[nH]cn1)C1CCCCC1)C1CCOCC1` (stereo not shown) [compound 53], at human BACE-1, the inhibition at 1 µM was 90% and the IC50 worked out at 460 nM.

With `CC(C)(C)CCN(Cc1ncc[nH]1)C(=O)CCC(c1cc2cc(Oc3ccccc3)ccc2nc1N)C1CCOCC1` (stereo not shown) [compound 57], the “% Inhibition 1 μM” value at human BACE-1 was found to be 93%.

For `Nc1nc2ccc(Oc3ccccc3)cc2cc1C(CCC(=O)N(CCO)C1CCCCC1)C1CCOCC1` (stereo not shown) [compound 50], on human BACE-1, the “% Inhibition 1 μM” value was determined as 87% and the IC50 is 740 nM.

With `Nc1nc2ccc(Oc3ccccc3)cc2cc1C(CCC(=O)NC12CC3CC(CC(C3)C1)C2)C1CCOCC1` (stereo not shown) [compound 24], the inhibition constant (Ki) on β-secretase (BACE) [1] (read-out: Ki (μM) (Example 11)) came to 0.066 µM. Further, on β-secretase (BACE) [2], the “% Inhibition (Example 10) @ 0.3 μM” value is recorded as 56%, the “% Inhibition (Example 10) @ 1 μM” value is recorded as 103% and the “% Inhibition (Example 10) @ 3 μM” value is 132%.

As for `Cn1ccnc1CN(CCC(C)(C)C)C(=O)CCC(c1cc2cc(Oc3ccccc3)ccc2nc1N)C1CCCCC1` (stereo not shown) [compound 71], on human BACE-1 (1 µM), the “% Inhibition 1 μM” value is reported as 73%.

For the compound `CN(CC1CCCCC1)C(=O)CCC(c1cc2cc(Oc3ccccc3)ccc2nc1N)C1CCCCC1` (stereo not shown) [compound 40], at human BACE-1, the “% Inhibition 0.3 μM” value was 13%, the “% Inhibition 1 μM” value is reported as 54% and the IC50 worked out at 650 nM.

Turning to `Cn1ccnc1CN(CCC(C)(C)C)C(=O)CCC(c1cc2cc(Oc3ccccc3)ccc2nc1N)C1CCOCC1` (stereo not shown) [compound 56], the “% Inhibition 1 μM” value on human BACE-1 was found to be 94%.

With `CC(C)(C)CN(Cc1c[nH]cn1)C(=O)CCC(c1cc2cc(Oc3ccccc3)ccc2nc1N)C1CCOCC1` (stereo not shown) [compound 59], on human BACE-1, the “% Inhibition 1 μM” value is 78%.

Take `CC(C)(C)CN(Cc1ncc[nH]1)C(=O)CCC(c1cc2cc(Oc3ccccc3)ccc2nc1N)C1CCOCC1` (stereo not shown) [compound 58]: on human BACE-1, the “% Inhibition 1 μM” value is recorded as 88%.

`CC1CCCC(NC(=O)CCc2cc3cc(Oc4ccccc4)ccc3nc2N)C1` (stereo not shown) [compound 3] came in with a Ki on β-secretase (BACE) [1] (Ki (μM) (Example 11)) of 0.49 µM. Also, at β-secretase (BACE) [2], the inhibition at 0.3 µM came out at 58%, the inhibition at 1 µM turned out to be 89% and the inhibition at 3 µM was 115%.

Take `Nc1nc2ccc(Oc3ccccc3)cc2cc1C(CCC(=O)N(CCN1CCCC1)C1CCCCC1)C1CCCCC1` (stereo not shown) [compound 37]: on human BACE-1, the inhibition at 0.3 µM stood at 27%, the inhibition at 1 µM amounted to 81% and the IC50 is 580 nM.
